Test results reported in patent publication US20260176320A1, “MODULATORS OF G-PROTEIN COUPLED RECEPTORS” (priority 2018, published 2026).
Read-outs that look alike come from different tables or passages of the source.

How the values were obtained:
Assay type in all cases: cell-based
[1] = biological target: T1, GIP-R (Homo sapiens, UniProt P48546); assay: HitHunter cAMP assay (GIP-R); conditions: cAMP; for Emax: read-out: (Emax) GIP-R
T1 sequence (P48546 22-466): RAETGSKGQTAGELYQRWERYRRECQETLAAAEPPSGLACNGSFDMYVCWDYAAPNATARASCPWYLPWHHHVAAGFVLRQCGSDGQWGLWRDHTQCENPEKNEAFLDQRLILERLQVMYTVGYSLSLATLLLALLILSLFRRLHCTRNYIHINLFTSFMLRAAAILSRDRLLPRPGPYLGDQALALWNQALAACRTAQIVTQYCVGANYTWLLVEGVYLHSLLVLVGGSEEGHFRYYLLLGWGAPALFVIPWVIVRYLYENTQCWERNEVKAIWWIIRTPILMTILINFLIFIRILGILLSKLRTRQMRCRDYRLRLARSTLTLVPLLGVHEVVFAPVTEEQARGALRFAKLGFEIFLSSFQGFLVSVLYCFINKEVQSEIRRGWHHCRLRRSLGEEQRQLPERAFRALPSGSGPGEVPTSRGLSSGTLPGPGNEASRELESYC
Summary of the method: (§1)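 Suspension cells expressing each receptor (10,000 per well) in HBSS with 10 mM HEPES, 625 μM IBMX and 0.2% BSA were treated with a 22-point 2-fold agonist series in duplicate for 30 minutes at room temperature. cAMP was detected by antibody immunocompetition with luminescence read after overnight incubation.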

[2] = biological target: T2, GLP-1R (Homo sapiens, UniProt P43220); assay: HitHunter cAMP assay (GLP-1R); conditions: cAMP; for Emax: read-out: (Emax) GLP-1R
Summary of the method: as §1

[3] = biological target: T2, GLP-1R; assay: PathHunter β-arrestin assay
Summary of the method: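 Cells seeded overnight, then medium replaced with medium containing 0.2% BSA; agonists added as 22-point 2-fold DMSO dilution series in duplicate and incubated 90 min at 37 °C, 5% CO2. After addition of detection solution, plates sat 3 h at room temperature in the dark; luminescence read.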

[4] = Table 3, read-out: EC50 GIP-R/nM
[5] = Table 3A, read-out: EC50 GIP-R/nM
[6] = Table 3, read-out: EC50 GLP-1R/nM
[7] = Table 3A, read-out: EC50 GLP-1R/nM
[8] = PathHunter β-arrestin assay, read-out: β-arrestin activity EC50

T2 sequence (P43220 24-463): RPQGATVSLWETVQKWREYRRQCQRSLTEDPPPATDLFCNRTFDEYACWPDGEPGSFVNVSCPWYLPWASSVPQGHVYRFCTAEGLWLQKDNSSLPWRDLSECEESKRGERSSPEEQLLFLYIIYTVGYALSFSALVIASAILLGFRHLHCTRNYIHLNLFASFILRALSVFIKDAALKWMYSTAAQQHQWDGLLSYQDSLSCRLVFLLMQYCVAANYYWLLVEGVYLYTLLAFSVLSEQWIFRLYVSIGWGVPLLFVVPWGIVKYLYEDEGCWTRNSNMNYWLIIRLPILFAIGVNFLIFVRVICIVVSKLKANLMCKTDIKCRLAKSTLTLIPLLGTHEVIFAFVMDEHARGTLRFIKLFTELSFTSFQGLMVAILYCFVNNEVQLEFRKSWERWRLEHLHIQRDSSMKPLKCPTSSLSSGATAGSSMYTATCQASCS

## CC[C@H](C)[C@H](NC(=O)[C@H](CO)NC(=O)[C@H](Cc1ccc(O)cc1)NC(=O)[C@H](CC(=O)O)NC(=O)[C@H](CO)NC(=O)[C@@H](NC(=O)[C@H](Cc1ccccc1)NC(=O)[C@@H](NC(=O)CNC(=O)[C@H](CCC(=O)O)NC(=O)CSCC(=O)NCCn1c(C)cc(C)nc1=O)[C@@H](C)O)[C@@H](C)O)C(=O)N[C@@H](Cc1ccc(O)cc1)C(=O)N[C@@H](CC(C)C)C(=O)N[C@@H](CC(=O)O)C(=O)N[C@@H](CCCCN)C(=O)N[C@@H](CCC(N)=O)C(=O)N[C@@H](C)C(=O)N[C@@H](C)C(=O)NC(C)(C)C(=O)N[C@@H](CCC(=O)O)C(=O)N[C@@H](Cc1ccccc1)C(=O)N[C@H](C(=O)N[C@@H](CC(N)=O)C(=O)N[C@@H](Cc1c[nH]c2ccccc12)C(=O)N[C@@H](CC(C)C)C(=O)N[C@@H](CC(C)C)C(=O)N[C@@H](C)C(=O)NCC(=O)NCC(=O)N1CCC[C@H]1C(=O)N[C@@H](CO)C(=O)N[C@@H](CO)C(=O)NCC(=O)N[C@@H](C)C(=O)N1CCC[C@H]1C(=O)N1CCC[C@H]1C(=O)N1CCC[C@H]1C(=O)N[C@@H](CO)C(=O)N[C@@H](CCCCN)C(N)=O)C(C)C [Compound 137]
[1]; EC50 GIP-R/nM, Table 3
  EC50: 10 to 100 nM
[1]; Table 3
  Emax: 8%
[2]; EC50 GLP-1R/nM, Table 3
  EC50: 1 to 10 nM
[2]; EC50 GLP-1R/nM, Table 3A
  EC50: 1 to 10 nM
[2]; Table 3
  Emax: 103%
[2]; Table 3A
  Emax: 103%
[3]
  EC50: > 1000 nM

## CC[C@H](C)[C@H](NC(=O)[C@H](CO)NC(=O)[C@H](Cc1ccc(O)cc1)NC(=O)[C@H](CC(=O)O)NC(=O)[C@H](CO)NC(=O)[C@@H](NC(=O)[C@H](Cc1ccccc1)NC(=O)[C@@H](NC(=O)CNC(=O)[C@H](CCC(=O)O)NC(=O)CSCC(=O)NCCN1C(=O)CCCC1=O)[C@@H](C)O)[C@@H](C)O)C(=O)N[C@@H](Cc1ccc(O)cc1)C(=O)N[C@@H](CC(C)C)C(=O)N[C@@H](CC(=O)O)C(=O)N[C@@H](CCCCN)C(=O)N[C@@H](CCC(N)=O)C(=O)N[C@@H](C)C(=O)N[C@@H](C)C(=O)NC(C)(C)C(=O)N[C@@H](CCC(=O)O)C(=O)N[C@@H](Cc1ccccc1)C(=O)N[C@H](C(=O)N[C@@H](CC(N)=O)C(=O)N[C@@H](Cc1c[nH]c2ccccc12)C(=O)N[C@@H](CC(C)C)C(=O)N[C@@H](CC(C)C)C(=O)N[C@@H](C)C(=O)NCC(=O)NCC(=O)N1CCC[C@H]1C(=O)N[C@@H](CO)C(=O)N[C@@H](CO)C(=O)NCC(=O)N[C@@H](C)C(=O)N1CCC[C@H]1C(=O)N1CCC[C@H]1C(=O)N1CCC[C@H]1C(=O)N[C@@H](CO)C(=O)N[C@@H](CCCCN)C(N)=O)C(C)C [Compound 138]
[1]; EC50 GIP-R/nM, Table 3
  EC50: 1 to 10 nM
[1]; EC50 GIP-R/nM, Table 3A
  EC50: 1 to 10 nM
[1]; Table 3
  Emax: 81%
[1]; Table 3A
  Emax: 81%
[2]; EC50 GLP-1R/nM, Table 3
  EC50: 1 to 10 nM
[2]; EC50 GLP-1R/nM, Table 3A
  EC50: 1 to 10 nM
[2]; Table 3
  Emax: 87%
[2]; Table 3A
  Emax: 87%
[3]
  EC50: > 1000 nM

## CC[C@H](C)[C@H](NC(=O)[C@H](CO)NC(=O)[C@H](Cc1ccc(O)cc1)NC(=O)[C@H](CC(=O)O)NC(=O)[C@H](CO)NC(=O)[C@@H](NC(=O)[C@H](Cc1ccccc1)NC(=O)[C@@H](NC(=O)CNC(=O)[C@H](CCC(=O)O)NC(=O)CSCC(=O)NCCn1ccccc1=O)[C@@H](C)O)[C@@H](C)O)C(=O)N[C@@H](Cc1ccc(O)cc1)C(=O)N[C@@H](CC(C)C)C(=O)N[C@@H](CC(=O)O)C(=O)N[C@@H](CCCCN)C(=O)N[C@@H](CCC(N)=O)C(=O)N[C@@H](C)C(=O)N[C@@H](C)C(=O)NC(C)(C)C(=O)N[C@@H](CCC(=O)O)C(=O)N[C@@H](Cc1ccccc1)C(=O)N[C@H](C(=O)N[C@@H](CC(N)=O)C(=O)N[C@@H](Cc1c[nH]c2ccccc12)C(=O)N[C@@H](CC(C)C)C(=O)N[C@@H](CC(C)C)C(=O)N[C@@H](C)C(=O)NCC(=O)NCC(=O)N1CCC[C@H]1C(=O)N[C@@H](CO)C(=O)N[C@@H](CO)C(=O)NCC(=O)N[C@@H](C)C(=O)N1CCC[C@H]1C(=O)N1CCC[C@H]1C(=O)N1CCC[C@H]1C(=O)N[C@@H](CO)C(=O)N[C@@H](CCCCN)C(N)=O)C(C)C [Compound 139]
[1]; Table 3
  Emax: 79%
[1]; [4]
  EC50: 1 to 10 nM
[1]; Table 3A
  Emax: 79%
[1]; [5]
  EC50: 1 to 10 nM
[2]; Table 3
  Emax: 102%
[2]; [6]
  EC50: 0.1 to 1 nM
[2]; Table 3A
  Emax: 102%
[2]; [7]
  EC50: 0.1 to 1 nM
[3]; [8]
  EC50: > 1000 nM

## CC[C@H](C)[C@H](NC(=O)[C@H](CO)NC(=O)[C@H](Cc1ccc(O)cc1)NC(=O)[C@H](CC(=O)O)NC(=O)[C@H](CO)NC(=O)[C@@H](NC(=O)[C@H](Cc1ccccc1)NC(=O)[C@@H](NC(=O)CNC(=O)[C@H](CCC(=O)O)NC(=O)C(C)(C)C(=O)NCCN1C(=O)c2ccccc2C1=O)[C@@H](C)O)[C@@H](C)O)C(=O)N[C@@H](Cc1ccc(O)cc1)C(=O)N[C@@H](CC(C)C)C(=O)N[C@@H](CC(=O)O)C(=O)N[C@@H](CCCCN)C(=O)N[C@@H](CCC(N)=O)C(=O)N[C@@H](C)C(=O)N[C@@H](C)C(=O)NC(C)(C)C(=O)N[C@@H](CCC(=O)O)C(=O)N[C@@H](Cc1ccccc1)C(=O)N[C@H](C(=O)N[C@@H](CC(N)=O)C(=O)N[C@@H](Cc1c[nH]c2ccccc12)C(=O)N[C@@H](CC(C)C)C(=O)N[C@@H](CC(C)C)C(=O)N[C@@H](C)C(=O)NCC(=O)NCC(=O)N1CCC[C@H]1C(=O)N[C@@H](CO)C(=O)N[C@@H](CO)C(=O)NCC(=O)N[C@@H](C)C(=O)N1CCC[C@H]1C(=O)N1CCC[C@H]1C(=O)N1CCC[C@H]1C(=O)N[C@@H](CO)C(=O)N[C@@H](CCCCN)C(N)=O)C(C)C [Compound 140]
[1]; EC50 GIP-R/nM, Table 3
  EC50: 1 to 10 nM
[1]; EC50 GIP-R/nM, Table 3A
  EC50: 1 to 10 nM
[1]; Table 3
  Emax: 63%
[1]; Table 3A
  Emax: 63%
[2]; EC50 GLP-1R/nM, Table 3
  EC50: < 0.1 nM
[2]; EC50 GLP-1R/nM, Table 3A
  EC50: < 0.1 nM
[2]; Table 3
  Emax: 107%
[2]; Table 3A
  Emax: 107%
[3]
  EC50: > 1000 nM

## CC[C@H](C)[C@H](NC(=O)[C@H](CO)NC(=O)[C@H](Cc1ccc(O)cc1)NC(=O)[C@H](CC(=O)O)NC(=O)[C@H](CO)NC(=O)[C@@H](NC(=O)[C@H](Cc1ccccc1)NC(=O)[C@@H](NC(=O)CNC(=O)[C@H](CCC(=O)O)NC(=O)C(C)(C)C(=O)NCCCCN1C(=O)c2ccccc2C1=O)[C@@H](C)O)[C@@H](C)O)C(=O)N[C@@H](Cc1ccc(O)cc1)C(=O)N[C@@H](CC(C)C)C(=O)N[C@@H](CC(=O)O)C(=O)N[C@@H](CCCCN)C(=O)N[C@@H](CCC(N)=O)C(=O)N[C@@H](C)C(=O)N[C@@H](C)C(=O)NC(C)(C)C(=O)N[C@@H](CCC(=O)O)C(=O)N[C@@H](Cc1ccccc1)C(=O)N[C@H](C(=O)N[C@@H](CC(N)=O)C(=O)N[C@@H](Cc1c[nH]c2ccccc12)C(=O)N[C@@H](CC(C)C)C(=O)N[C@@H](CC(C)C)C(=O)N[C@@H](C)C(=O)NCC(=O)NCC(=O)N1CCC[C@H]1C(=O)N[C@@H](CO)C(=O)N[C@@H](CO)C(=O)NCC(=O)N[C@@H](C)C(=O)N1CCC[C@H]1C(=O)N1CCC[C@H]1C(=O)N1CCC[C@H]1C(=O)N[C@@H](CO)C(=O)N[C@@H](CCCCN)C(N)=O)C(C)C [Compound 141]
[1]; EC50 GIP-R/nM, Table 3
  EC50: 10 to 100 nM
[1]; EC50 GIP-R/nM, Table 3A
  EC50: 10 to 100 nM
[1]; Table 3
  Emax: 46 to 50%
[1]; Table 3A
  Emax: 46 to 50%
[2]; EC50 GLP-1R/nM, Table 3
  EC50: 1 to 10 nM
[2]; EC50 GLP-1R/nM, Table 3A
  EC50: 1 to 10 nM
[2]; Table 3
  Emax: 98 to 100%
[2]; Table 3A
  Emax: 98 to 100%
[3]
  EC50: > 1000 nM

## CC[C@H](C)[C@H](NC(=O)[C@H](CO)NC(=O)[C@H](Cc1ccc(O)cc1)NC(=O)[C@H](CC(=O)O)NC(=O)[C@H](CO)NC(=O)[C@@H](NC(=O)[C@H](Cc1ccccc1)NC(=O)[C@@H](NC(=O)CNC(=O)[C@H](CCC(=O)O)NC(=O)C(C)(C)C(=O)NC)[C@@H](C)O)[C@@H](C)O)C(=O)N[C@@H](Cc1ccc(O)cc1)C(=O)N[C@@H](CC(C)C)C(=O)N[C@@H](CC(=O)O)C(=O)N[C@@H](CCCCN)C(=O)N[C@@H](CCC(N)=O)C(=O)N[C@@H](C)C(=O)N[C@@H](C)C(=O)NC(C)(C)C(=O)N[C@@H](CCC(=O)O)C(=O)N[C@@H](Cc1ccccc1)C(=O)N[C@H](C(=O)N[C@@H](CC(N)=O)C(=O)N[C@@H](Cc1c[nH]c2ccccc12)C(=O)N[C@@H](CC(C)C)C(=O)N[C@@H](CC(C)C)C(=O)N[C@@H](C)C(=O)NCC(=O)NCC(=O)N1CCC[C@H]1C(=O)N[C@@H](CO)C(=O)N[C@@H](CO)C(=O)NCC(=O)N[C@@H](C)C(=O)N1CCC[C@H]1C(=O)N1CCC[C@H]1C(=O)N1CCC[C@H]1C(=O)N[C@@H](CO)C(=O)N[C@@H](CCCCN)C(N)=O)C(C)C [Compound 142]
[1]; Table 3
  Emax: 14.2 to 17%
[1]; [4]
  EC50: 10 to 100 nM
[1]; Table 3A
  Emax: 14.2 to 17%
[1]; [5]
  EC50: 100 to 1000 nM
[2]; Table 3
  Emax: 101 to 105%
[2]; [6]
  EC50: < 0.1 nM
[2]; Table 3A
  Emax: 101 to 105%
[2]; [7]
  EC50: < 0.1 nM
[3]; [8]
  EC50: 10 to 1000 nM
